Results from the supplement of paper PMC5908809.

Tests used:
[1] = tested on: normal NK cells expanded with K562-aAPC; assay: drug sensitivity score (DSS) (DSS units); higher = more sensitive; extreme values may be limits of the assay; conditions: 72 h; IL-2 2.5 ng/mL
Procedure: (§1)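 Drug sensitivity and resistance testing on K562-aAPC-expanded normal NK cells: 5 concentrations (10-fold steps over a 10,000-fold range), 72 h at 37 °C, viability by CellTiter-Glo normalised to DMSO and benzethonium chloride controls; DSS from the fitted curve.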

DERL-7 (IL-2 2.5 ng/mL) [2] = assay: percent inhibition of viability; higher = more inhibition; conditions: 72 h
[3] = tested on: normal primary NK cells, pool 1 (3 donors) (IL-2 2.5 ng/mL); assay: as above; conditions: 72 h
NKL (IL-2 2.5 ng/mL) [4] = assay: as above; conditions: 72 h
[5] = tested on: normal primary NK cells, pool 1 (3 donors), resting (IL-2 0 ng/mL); assay: as above; conditions: 72 h
SNK-6 (IL-2 2.5 ng/mL) [6] = assay: as above; conditions: 72 h
[7] = tested on: normal primary NK cells, pool 3 (3 donors) (IL-2 2.5 ng/mL); assay: as above; conditions: 72 h
KAI3 (IL-2 2.5 ng/mL) [8] = assay: as above; conditions: 72 h
YT (IL-2 2.5 ng/mL) [9] = assay: as above; conditions: 72 h
KHYG-1 (IL-2 2.5 ng/mL) [10] = assay: as above; conditions: 72 h
IMC-1 (IL-2 20 ng/mL) [11] = assay: as above; conditions: 72 h
NK-YS (IL-2 2.5 ng/mL) [12] = assay: as above; conditions: 72 h
[13] = tested on: normal primary NK cells, pool 2 (3 donors) (IL-2 2.5 ng/mL); assay: as above; conditions: 72 h
NK-92 (IL-2 2.5 ng/mL) [14] = assay: as above; conditions: 72 h
[15] = tested on: normal NK cells expanded with K562-aAPC; assay: as above; conditions: 72 h, IL-2 2.5 ng/mL
Procedure: as §1

DERL-7 (IL-2 2.5 ng/mL) [16] = assay: drug sensitivity score (DSS) (DSS units); higher = more sensitive; extreme values may be limits of the assay; conditions: 72 h
[17] = tested on: normal primary NK cells, pool 1 (3 donors) (IL-2 2.5 ng/mL); assay: as above; conditions: 72 h
NKL (IL-2 2.5 ng/mL) [18] = assay: as above; conditions: 72 h
[19] = tested on: normal primary NK cells, pool 1 (3 donors), resting (IL-2 0 ng/mL); assay: as above; conditions: 72 h
SNK-6 (IL-2 2.5 ng/mL) [20] = assay: as above; conditions: 72 h
[21] = tested on: normal primary NK cells, pool 3 (3 donors) (IL-2 2.5 ng/mL); assay: as above; conditions: 72 h
KAI3 (IL-2 2.5 ng/mL) [22] = assay: as above; conditions: 72 h
YT (IL-2 2.5 ng/mL) [23] = assay: as above; conditions: 72 h
KHYG-1 (IL-2 2.5 ng/mL) [24] = assay: as above; conditions: 72 h
IMC-1 (IL-2 20 ng/mL) [25] = assay: as above; conditions: 72 h
NK-YS (IL-2 2.5 ng/mL) [26] = assay: as above; conditions: 72 h
[27] = tested on: normal primary NK cells, pool 2 (3 donors) (IL-2 2.5 ng/mL); assay: as above; conditions: 72 h
NK-92 (IL-2 2.5 ng/mL) [28] = assay: as above; conditions: 72 h

COc1cc(N2CCN(C)CC2)ccc1Nc1nccc(-c2cn(C)c3cnccc23)n1 [AZ191] (max concentration tested 10000 nM)
Conditions | drug sensitivity score
DERL-7 (IL-2 2.5 ng/mL) [16] | 9.03
IMC-1 (IL-2 20 ng/mL) [25] | 6.03
KAI3 (IL-2 2.5 ng/mL) [22] | 6.56
KHYG-1 (IL-2 2.5 ng/mL) [24] | 7.01
NK-92 (IL-2 2.5 ng/mL) [28] | 4.21
NK-YS (IL-2 2.5 ng/mL) [26] | 6.95
NKL (IL-2 2.5 ng/mL) [18] | 7.17
SNK-6 (IL-2 2.5 ng/mL) [20] | 4.58
YT (IL-2 2.5 ng/mL) [23] | 2.31
[1] | 6.54
[17] | 5.01
[19] | 3.59
[21] | 4.48
[27] | 4.59

percent inhibition of viability [%]
Conditions | 1 nM | 10 nM | 100 nM | 1000 nM | 10000 nM
DERL-7 (IL-2 2.5 ng/mL) [2] | 7.49 | 2.85 | 4.6 | 22.2 | 100
IMC-1 (IL-2 20 ng/mL) [11] | -5.47 | 3.31 | -0.27 | 2.63 | 101
KAI3 (IL-2 2.5 ng/mL) [8] | -2.82 | -0.25 | 1.51 | 7.76 | 96.3
KHYG-1 (IL-2 2.5 ng/mL) [10] | 0.79 | 2.96 | 3.04 | 14.1 | 84
NK-92 (IL-2 2.5 ng/mL) [14] | 2.97 | 2.04 | -3.34 | -19.2 | 93.8
NK-YS (IL-2 2.5 ng/mL) [12] | -4.12 | 2.61 | 2.04 | 8.64 | 101
NKL (IL-2 2.5 ng/mL) [4] | 0.2 | -6.29 | 1.16 | 9.93 | 100
SNK-6 (IL-2 2.5 ng/mL) [6] | -18.5 | -11.7 | -15.3 | -7.38 | 92
YT (IL-2 2.5 ng/mL) [9] | 2.03 | 4.34 | 2.77 | 1.55 | 41.9
[3] | 7.5 | -5.03 | -5.7 | -4.75 | 96.8
[5] | 1.62 | -14.6 | -3.74 | -36.1 | 89
[7] | -10.6 | -7.12 | 4.76 | -17.3 | 97.8
[13] | -12.1 | -5.94 | -2.76 | -11.2 | 95.5
[15] | -2.34 | 0.52 | -4.12 | 6.6 | 100

C[C@@H]1COC(Nc2ccc3ncnc(Nc4ccc(OCc5nccs5)c(Cl)c4)c3c2)=N1 [Varlitinib] (max concentration tested 10000 nM)
Conditions | drug sensitivity score
DERL-7 (IL-2 2.5 ng/mL) [16] | 0
IMC-1 (IL-2 20 ng/mL) [25] | 2.92
KAI3 (IL-2 2.5 ng/mL) [22] | 0
KHYG-1 (IL-2 2.5 ng/mL) [24] | 1.18
NK-92 (IL-2 2.5 ng/mL) [28] | 2.45
NK-YS (IL-2 2.5 ng/mL) [26] | 0.1
NKL (IL-2 2.5 ng/mL) [18] | 1.5
SNK-6 (IL-2 2.5 ng/mL) [20] | 8.77
YT (IL-2 2.5 ng/mL) [23] | 0.09
[1] | 0
[17] | 0
[19] | 0
[21] | 0
[27] | 0

percent inhibition of viability [%]
Conditions | 1 nM | 10 nM | 100 nM | 1000 nM | 10000 nM
DERL-7 (IL-2 2.5 ng/mL) [2] | 1.37 | -3.89 | -4.97 | -5.43 | -2.66
IMC-1 (IL-2 20 ng/mL) [11] | -2.91 | 6.3 | 4.06 | 14.6 | 34
KAI3 (IL-2 2.5 ng/mL) [8] | 0.52 | 0.69 | -2.99 | 5.18 | 9.75
KHYG-1 (IL-2 2.5 ng/mL) [10] | 0.82 | -0.44 | 4.79 | 10.6 | 19.4
NK-92 (IL-2 2.5 ng/mL) [14] | -5.14 | -6.85 | 0.79 | 4.69 | 35.3
NK-YS (IL-2 2.5 ng/mL) [12] | 2.18 | -3.81 | 2.34 | 4.33 | 12.3
NKL (IL-2 2.5 ng/mL) [4] | 1.14 | 7.53 | 8.83 | 12.6 | 17.6
SNK-6 (IL-2 2.5 ng/mL) [6] | 7.32 | 23.1 | 18.9 | 25.6 | 29.6
YT (IL-2 2.5 ng/mL) [9] | 3.61 | 0.68 | 4.78 | 8.48 | 12.2
[3] | -1.41 | -12.3 | 1.76 | -7.07 | 4.85
[5] | -8.46 | -19.4 | -14.8 | -23.5 | -3.47
[7] | -15.9 | -6.58 | -0.23 | -16.5 | 3.13
[13] | -7.11 | -4.04 | 6.91 | 1.02 | 9.32
[15] | -1.48 | 1.48 | 0.78 | 6.23 | 6.06
